# “Also recorded” adds a separate entry of the source. Read-outs that look alike come from different tables or passages of the source. Peptide text beside a SMILES is read from it.
# Legend:
# NKR strain [1] = assay type: cell-based, Burkholderia sp. N16-1 strain; conditions: for cell count of the NKR strain in the soil vs no addition: pH-adjusted SB soil
# NKR strain [2] = assay type: cell-based, Burkholderia sp. N16-1 strain
# [3] = system: R. solanacearum OE1-1 strain; assay type: in vivo, tomato; conditions: 500 ppm D-serine-added contaminated soil
# [4] = system: Ralstonia solanacearum OE1-1 strain; assay type: cell-based; conditions: for cell count of the OE1-1 strain vs 0 ppm: Example 9; for control of R. solanacearum OE1-1 strain: Examples 9 and 10 summary, addition of 500 ppm or more
# [5] = system: total cell count in the soil; assay type: cell-based
# [6] = system: total cell count in the soil; assay: Total cell count in soil inoculated with the NKR strain (DNB agar medium); assay type: cell-based; conditions: Example 3; SB soil pH 7.0; sucrose solution with M9 medium (N, P and C source) added on day 13
# [7] = Example 5, 5000 ppm added after 5 days at 20° C.
# [8] = Biolog GN plate, compounds in parentheses showed slight color development
# [9] = Example 7, SB soil, 5000 ppm substrate, D-serine metabolites
Molecule,assimilation by the NKR strain (color development of an oxidation-reduction indicator) (NKR strain [2]; [8]),other results
NC(CO)C(=O)O (racemic) [DL-serine],,cell count of the NKR strain in the soil vs no addition (NKR strain [1]; [7]): the effect of cell count control can be observed though the degree of reduction is small
"CC(O)C(C)O (stereo not shown) [2,3-butanediol]",no color development,
"O=P(O)(O)OCC(O)CO [D, L-α-glycerol phosphate]",no color development,
N[C@H](CS)C(=O)O [D-cysteine],,cell count of the NKR strain vs control section (NKR strain [1]; [9]): markedly declined; also recorded: exhibited control effects
O=C(CO)[C@H](O)[C@H](O)[C@H](O)CO [D-piscose],slight color development,
OC[C@H]1O[C@H](OC[C@H]2O[C@H](O[C@]3(CO)O[C@H](CO)[C@@H](O)[C@@H]3O)[C@H](O)[C@@H](O)[C@@H]2O)[C@H](O)[C@@H](O)[C@H]1O [D-raffinose],no color development,
O=C(O)[C@@H](O)[C@@H](O)[C@H](O)[C@@H](O)C(=O)O [D-saccharic acid],slight color development,
"NC(CO)C(=O)O [D-serine, 2-amino-3-hydroxypropionic acid]",does not assimilate; also recorded: no color development,"germination of tomato seeds ([3]; day 4 after sowing): germination of the tomato seeds was observed; growth of young tomato seedlings ([3]; no-addition seedlings all died except one by day 10): grew normally; cell count of the OE1-1 strain vs control ([4]; Example 8, field soil, 5000 ppm): declined markedly; cell count of the OE1-1 strain vs 0 ppm ([4]; field soil, D-serine 500, 1000, 2000 or 5000 ppm): a reduction in the cell count; control of R. solanacearum OE1-1 strain [4]: works to control; total cell count in the soil [5]: almost no changes were observed; cell count of the NKR strain in the soil vs no addition (NKR strain [1]; Example 4, 0.5% D-serine added after 2 days culture at 30° C.): markedly reduced; also recorded: markedly declined; also recorded: very effective; cell count of the NKR strain in the soil vs no addition (NKR strain [1]; [7]): markedly declined; also recorded: very effective; cell count of the NKR strain vs control section (NKR strain [1]; Example 6, 5000 ppm, Kuroboku (black) soil A (field soil)): no effects were observed; cell count of the NKR strain vs control section (NKR strain [1]; Example 6, 5000 ppm, Kuroboku (black) soil B, sandy soils A, B, C, D (all soils excluding Kuroboku soil A)): markedly declined"
OC[C@H]1O[C@H](O[C@H]2O[C@H](CO)[C@@H](O)[C@H](O)[C@H]2O)[C@H](O)[C@@H](O)[C@@H]1O [D-trehalose],slight color development,
C[C@@H](N)C(=O)O [D-α-alanine],no color development,cell count of the NKR strain vs control section (NKR strain [1]; [9]): markedly declined; also recorded: exhibited control effects
N[C@@H](CC(=O)O)C(=O)O [L-aspartic acid],slight color development,
NCCC[C@H](N)C(=O)O [L-omithine],slight color development,
N[C@@H](CO)C(=O)O [L-serine],slight color development,cell count of the NKR strain in the soil vs no addition (NKR strain [1]; [7]): remained almost constant; also recorded: almost no effect
C[C@@H](O)[C@H](N)C(=O)O [L-threonine],slight color development,
CC(=O)O [acetic acid],no color development,
C[C@H](N)C(N)=O [alanine amide],slight color development,
O=C[C@H](O)[C@@H](O)[C@H](O[C@@H]1O[C@H](CO)[C@@H](O)[C@H](O)[C@H]1O)[C@H](O)CO [cellobiose],slight color development,
OC[C@@H](O)[C@@H](O)CO [erythritol],no color development,
NCCO [ethanolamine],slight color development,cell count of the OE1-1 strain vs 0 ppm ([4]; ethanolamine 500 ppm sequentially added or 1000 ppm or greater): decrease in the cell counts; cell count of the OE1-1 strain vs 0 ppm ([4]; one-time addition of 500 ppm ethanolamine): did not exhibit sufficient effects; control of R. solanacearum OE1-1 strain [4]: works to control; total cell count in the soil [5]: remained constant; cell count of the NKR strain vs control section (NKR strain [1]; [9]): markedly declined; also recorded: exhibited control effects
O=P(O)(O)O[C@H]1O[C@H](CO)[C@@H](O)[C@H](O)[C@H]1O [glucose-1-phosphate],no color development,
O=C[C@H](O)[C@@H](O)[C@H](O)[C@H](O)COP(=O)(O)O [glucose-6-phosphate],slight color development,
NC(=O)[C@@H](O)[C@@H](O)[C@H](O)[C@@H](O)C=O [glucuronamide],slight color development,
NCC(=O)N[C@@H](CC(=O)O)C(=O)O [glycyl-L-aspartic acid] (H-Gly-Asp-OH),no color development,
C=C(CC(=O)O)C(=O)O [itaconic acid],no color development,

Molecule,assimilation by the NKR strain (color development of an oxidation-reduction indicator) (NKR strain [2]; [8]),other results
O=C(O)CC(=O)O [malonic acid],slight color development,
OC[C@H]1O[C@H](O[C@H]2[C@H](O)[C@@H](O)[C@H](O)O[C@@H]2CO)[C@H](O)[C@@H](O)[C@@H]1O [maltose],no color development,
NCCc1ccccc1 [phenylethylamine],no color development,
CCC(=O)O [propionic acid],no color development,
NCCCCN [putrescine],slight color development,
CC(=O)C(=O)O [pyruvic acid],,cell count of the NKR strain vs control section (NKR strain [1]; [9]): markedly declined; also recorded: exhibited control effects
COc1ccc2nccc(C(=O)O)c2c1 [quininic acid],slight color development,
O=C(O)CCCCCCCCC(=O)O [sebacic acid],slight color development,
OC[C@H]1O[C@@](CO)(O[C@H]2O[C@H](CO)[C@@H](O)[C@H](O)[C@H]2O)[C@@H](O)[C@@H]1O [sucrose],does not assimilate; also recorded: no color development,"total cell counts in the soil [6]: increases in the total cell counts were observed; cell count of the NKR strain in the soil (NKR strain [1]; Example 3, SB soil pH 7.0, sucrose solution with M9 medium added on day 13 after inoculation): transiently increased but then starts to decline; also recorded: after a transient increase, decreased slightly"
Cc1cn([C@H]2C[C@H](O)[C@@H](CO)O2)c(=O)[nH]c1=O [thymidine],no color development,
O=C(CO)[C@@H](O[C@H]1O[C@H](CO)[C@@H](O)[C@H](O)[C@H]1O)[C@H](O)[C@H](O)CO [turanose],no color development,
O=c1ccn([C@@H]2O[C@H](CO)[C@@H](O)[C@H]2O)c(=O)[nH]1 [uridine],slight color development,
O=C(O)/C=C/c1c[nH]cn1 [urocanic acid],slight color development,
OC[C@@H](O)[C@H](O)[C@@H](O)CO [xylitol],no color development,
OC[C@H]1O[C@@H](O[C@H]2[C@H](O)[C@@H](O)[C@@H](O)O[C@@H]2CO)[C@H](O)[C@@H](O)[C@H]1O [α-D-lactose],slight color development,
CCC(O)C(=O)O (stereo not drawn) [α-hydroxybutyric acid],slight color development,
CCC(=O)C(=O)O [α-ketobutyric acid],slight color development,
O=C(O)CCC(=O)C(=O)O [α-ketoglutaric acid],slight color development,
COC1OC(CO)C(O)C(O)C1O [β-methyl-D-glucose],no color development,
O=C(O)CCCO [γ-hydroxybutyric acid],no color development,
dextrin,no color development,
gentiobiose,,assimilation by the NKR strain (color development of an oxidation-reduction indicator) (NKR strain [2]): no color development
glycogen,no color development,
α-cyclodexrin,no color development,

# Reference: patent publication US6861235B1, “Method for controlling target microorganism” (priority 1998, dated 2005)
